This is an account of results in PMC7537607 (Computational Biology and Chemistry, 2020).

Series [1] relates to Yellow Fever virus. Description: microbe, parasite or virus in culture. The format is cell-based. The note with it: for EC50: Yellow fever virus, Vero, read-out: EC50 Yellow Fever virus.
The subject of series [2] is Punta Toro virus. Briefly: microbe, parasite or virus in culture. It is filed as cell-based. The note with it: Vero, read-out: EC50 Punta Toro virus.
Series [3] concerns Coxsackie virus B4. Description: microbe, parasite or virus in culture. The format is cell-based. The note with it: Enterovirus B, B4, Vero, read-out: EC50 Coxsackie virus B4.
The test system of series [4] is Vero cells.
Series [5] in a line: in vitro. The note with it: human; for viability: 48 h.
For series [6], the system named is Para-influenza-3 virus. Description: organism not typed. The format is cell-based. The note with it: for EC50: Vero, read-out: EC50 Para-influenza-3 virus.
The test system of series [7] is Reovirus-1. Briefly: organism not typed. The format is cell-based. The note with it: for EC50: Vero, read-out: EC50 Reovirus-1.
Series [8] deals with Sindbis virus. Description: microbe, parasite or virus in culture. The format is cell-based. The note with it: Vero, read-out: EC50 Sindbis virus.
The subject of series [9] is HIV-1 (strain NL4.3). Description: microbe, parasite or virus in culture. The format is cell-based.
Setting [10] is: Cytotoxicity % Viability Exp - 1, 10 μg/mL.
[11] abbreviates: Cytotoxicity % Viability Exp - 1, 100 μg/mL.

Values after ≈ are worked out from the molar mass of the structure shown. Values joined by “and” are separate entries in the source; they are usually repeats but may differ in a detail not shown here. Equal entries are not always repeated. Where two headings read alike, the source gives them in different places.

Regarding `O=[N+]([O-])c1cc2nc(Cl)n(CCCO)c2cc1[N+](=O)[O-]` [Compound 4b, 3-(2-Chloro-5,6-dinitro-1H-benzimidazol-1-yl)propan-1-ol], the “SI (Yellow Fever Virus), ratio of MCC to EC50” value (shortened to “SI (Yellow Fever Virus), ratio”) in series [1] is reported as 1. The EC50 in series [1], in [2], in series [3], in series [6], in series [7] and in series [8] was more than 100 µg/mL in each case. Besides, in series [4] (African green monkey), the “Minimum cytotoxic concentration (MCC)” value was not below 100 µg/mL. Moreover, the viability (in general, a read-out of living cells in per cent, often relative to untreated cells) amounted to 92.1% in series [5] (setting [10]) and 90.9% in series [5] (setting [11]).

`NC(=O)c1ncn([C@@H]2O[C@H](CO)[C@@H](O)[C@H]2O)n1` [Ribavirin, reference compound]: the “SI (Yellow Fever Virus), ratio” value in [1] is on record as 1. The EC50 (as a rule, the concentration at which the effect is half-maximal) in series [1] is more than 250 µM; in [2], more than 250 µM; in series [3] it was more than 250 µM; in [6], 250 µM; in series [7], more than 250 µM; in [8] it was more than 250 µM.

On to `COc1c(C)c2c(c(O)c1C/C=C(\C)CCC(=O)O)C(=O)OC2` [Mycophenolic acid, reference compound], for which the “SI (Yellow Fever Virus), ratio” value in series [1] worked out at 125. Also, the EC50 in [1] is 0.8 µM; in series [2] it was 14 µM; in series [3] it was more than 100 µM; in [6], 0.6 µM; in series [7] it was 6 µM; in series [8], 8.9 µM.

“dextran sulfate [DS - 10.000, reference compound]”: in series [1], the “SI (Yellow Fever Virus), ratio” value was 125. Besides, in [4], the “Minimum cytotoxic concentration (MCC)” value is reported as >100 (0.01μM) μg/mL and the “Minimum cytotoxic concentration (MCC), molar value in parentheses” value was >100 (0.01μM). Also, the “EC50 Para-influenza-3 virus” value in series [6] was more than 100 µg/mL. In addition, the “EC50 Reovirus-1” value in series [7] is more than 100 µg/mL.

With `O=[N+]([O-])c1ccc2c(c1)nc(Cl)n2CCCO` [Compound 2b, 3-(2-Chloro-5-nitro-1H-benzimidazol-1-yl)propan-1-ol], the EC50 in series [2], in [3], in [6], in series [7] and in [8] was more than 100 µg/mL in each case. The viability amounted to 91.2% in series [5] (setting [10]) and 69.1% in series [5] (setting [11]).

Take `OCCn1c(Cl)nc2cc(Br)c(Br)cc21` [Compound 3a, 2-(5,6-Dibromo-2-chloro-1H-benzimidazol-1-yl)ethan-1-ol]: in [1], the “SI (Yellow Fever Virus), ratio” value was found to be 1. For the same molecule, the EC50 in series [1], in series [2], in series [3], in [6], in [7] and in series [8] was more than 100 µg/mL throughout. Besides, the “Minimum cytotoxic concentration (MCC)” value in [4] (African green monkey) was 100 µg/mL. The CC50 in [5] is 3.74 µg/mL and 10.5 µM. Besides, the viability came to 18.5% in series [5] (setting [10]); 0.96% in series [5] (setting [11]); 83.7% in series [5] (Cytotoxicity % Viability Exp - 2, 1 μg/mL); 49% in series [5] (Cytotoxicity % Viability Exp - 2, 5 μg/mL); 13.7% in series [5] (Cytotoxicity % Viability Exp - 2, 10 μg/mL). Further, the “SI (Selectivity index ratio CC50/IC50)” value in series [9] stood at 2.73. Further, the IC50 (usually the concentration needed to halve the response being measured) in [9] (Human immunodeficiency virus 1, TZM-bl, read-out: IC50 (HIV infection)) amounted to 1.37 µg/mL (≈ 3.87 µM).

On to `OCCn1c(Cl)nc2ccccc21` [Compound 1a, 2-(2-Chloro-1H-benzimidazol-1-yl)ethan-1-ol], for which the “SI (Yellow Fever Virus), ratio” value in [1] came to 1. The EC50 in series [1], in [2], in series [3], in series [6], in series [7] and in series [8] was more than 100 µg/mL each time. Besides, the “Minimum cytotoxic concentration (MCC)” value in series [4] (African green monkey) was more than 100 µg/mL. The viability amounted to 90.1% in series [5] (setting [10]) and 53.6% in series [5] (setting [11]).

`O=[N+]([O-])c1ccc2c(c1)nc(Cl)n2CCO` [Compound 2a, 2-(2-Chloro-5-nitro-1H-benzimidazol-1-yl)ethan-1-ol]: the “SI (Yellow Fever Virus), ratio” value in series [1] turned out to be 1. The EC50 in [1], in [2], in series [3], in series [6], in series [7] and in [8] was more than 100 µg/mL each time. In series [4] (African green monkey), the “Minimum cytotoxic concentration (MCC)” value was not below 100 µg/mL. For the same molecule, the values for the viability in series [5] (setting [10]) and in series [5] (setting [11]) were 104% and 40.4%, respectively.

For the molecule `OCCCn1c(Cl)nc2ccccc21` [Compound 1b, 3-(2-Chloro-1H-benzimidazol-1-yl)propan-1-ol], the “SI (Yellow Fever Virus), ratio” value in series [1] was 1. In addition, the EC50 in series [1], in [2], in series [3], in series [6], in [7] and in series [8] was more than 100 µg/mL each time. For the same molecule, the “Minimum cytotoxic concentration (MCC)” value in series [4] (African green monkey) was more than 100 µg/mL. For the same molecule, the viability turned out to be 92.6% in series [5] (setting [10]) and 58.6% in series [5] (setting [11]).

For `Cc1ccnc2c1NC(=O)c1cccnc1N2C1CC1` [Nevirapine, reference compound], the “SI (Selectivity index ratio CC50/IC50)” value in series [9] was more than 200.

Turning to `OCCCn1c(Cl)nc2cc(Br)c(Br)cc21` [Compound 3b, 3-(5,6-Dibromo-2-chloro-1H-benzimidazol-1-yl)propan-1-ol], in [1], the “SI (Yellow Fever Virus), ratio” value worked out at 1. For the same molecule, the EC50 in series [1], in [2], in series [3], in series [6], in series [7] and in series [8] was more than 100 µg/mL throughout. Besides, the “Minimum cytotoxic concentration (MCC)” value in series [4] (African green monkey) is more than 100 µg/mL. Besides, the viability in series [5] (setting [10]) is 102%; in series [5] (setting [11]), 79.8%.

On to `O=[N+]([O-])c1cc2nc(Cl)n(CCO)c2cc1[N+](=O)[O-]` [Compound 4a, 2-(2-Chloro-5,6-dinitro-1H-benzimidazol-1-yl)ethan-1-ol], for which the “SI (Yellow Fever Virus), ratio” value in series [1] turned out to be 1. In addition, the EC50 in series [1], in series [2], in series [3], in series [6], in series [7] and in [8] was more than 100 µg/mL throughout. Further, the “Minimum cytotoxic concentration (MCC)” value in [4] (African green monkey) is more than 100 µg/mL. For the same molecule, the viability in [5] (setting [10]) worked out at 99.9%; in [5] (setting [11]), 11.2%.
